These results are taken from PubChem BioAssay (NCI).

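48-hour exposure; five concentrations; linearly interpolated endpoints. TGI denotes the concentration required for complete inhibition of growth.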 Some results are limits rather than exact numbers.

Test systems include UO-31 renal; RPMI-8226 leukemia; RXF 393 renal; SNB-19 CNS; OVCAR-5 ovarian; SK-OV-3 ovarian; OVCAR-4 ovarian; HOP-62 NSCLC; HCT-116 colon; NCI-H460 lung; OVCAR-3 ovarian; EKVX NSCLC; CCRF-CEM leukemia; SR leukemia; ACHN renal; SF-539 CNS.
Common to all, as to test: inhibition of tumour cell growth, NCI panel, 48 h

Take `COc1ccccc1C1C(Cl)C(=O)N1n1cnc2ccccc2c1=O` (centres undefined): the TGI with UO-31 renal, in the assay with RPMI-8226 leukemia, with RXF 393 renal, in the assay with SNB-19 CNS, in the assay with OVCAR-5 ovarian and in the assay with SK-OV-3 ovarian was above 100 µM in each case. Also, the TGI in the assay with OVCAR-4 ovarian, in the assay on HOP-62 NSCLC, in the assay with HCT-116 colon, in the assay with NCI-H460 lung, in the assay on OVCAR-3 ovarian and in the assay with EKVX NSCLC was above 100 µM throughout. In addition, the TGI with CCRF-CEM leukemia, in the assay with SR leukemia and with ACHN renal was above 100 µM each time.

With `CC(=O)OC1CC2CCN3C(=O)c4cc5c(cc4[C@H](C1OC(C)=O)C23)OCO5` (some centres undefined), the TGI with UO-31 renal, with RPMI-8226 leukemia, in the assay with RXF 393 renal, with SNB-19 CNS, in the assay with SK-OV-3 ovarian and in the assay on HOP-62 NSCLC was above 100 µM throughout. The TGI in the assay with HCT-116 colon, with NCI-H460 lung, with OVCAR-3 ovarian, with EKVX NSCLC, with CCRF-CEM leukemia and in the assay on SF-539 CNS was above 100 µM in each case. In addition, the TGI in the assay on SR leukemia and with ACHN renal was above 100 µM each time.

As to `Cc1[nH]c(=O)nc2c1C(NCCCN(C)C)c1cc(Cl)ccc1N2` (centres undefined), the TGI with UO-31 renal came to 26.4 µM; with RPMI-8226 leukemia, 44 µM; in the assay with RXF 393 renal, 27 µM; with SNB-19 CNS, 31.2 µM; in the assay on SK-OV-3 ovarian, 32.1 µM; with HOP-62 NSCLC it was 27.9 µM. Further, the TGI with HCT-116 colon was 28.5 µM; with NCI-H460 lung, 29 µM; with OVCAR-3 ovarian, 33.6 µM; with EKVX NSCLC, 30.1 µM; in the assay on CCRF-CEM leukemia, 34.8 µM; with SF-539 CNS, 26.3 µM. Further, the TGI in the assay with SR leukemia turned out to be 27.3 µM; with ACHN renal, 30.2 µM.

On to `NC1=NC2=c3ccccc3=C(c3cnccn3)C2(c2cnccn2)c2ccccc21` (centres undefined), for which the TGI in the assay with UO-31 renal, with RPMI-8226 leukemia, with RXF 393 renal, with SNB-19 CNS, in the assay with OVCAR-5 ovarian and in the assay on SK-OV-3 ovarian was above 100 µM each time. For the same compound, the TGI in the assay with OVCAR-4 ovarian was above 100 µM; in the assay on HOP-62 NSCLC, above 100 µM; with HCT-116 colon, above 100 µM; in the assay on NCI-H460 lung it was above 100 µM; in the assay with OVCAR-3 ovarian it was 81.4 µM; in the assay on EKVX NSCLC, above 100 µM. Also, the TGI with CCRF-CEM leukemia, in the assay with SF-539 CNS, with SR leukemia and in the assay on ACHN renal was above 100 µM in each case.

In the case of `CC(C)(C)OC(=O)N[C@H]1CC(O)c2ccccc2N(CC(=O)O)C1=O` (some centres undefined), the TGI with UO-31 renal, in the assay on RXF 393 renal, in the assay on SNB-19 CNS, in the assay with SK-OV-3 ovarian, in the assay with OVCAR-4 ovarian and with HOP-62 NSCLC was above 100 µM throughout. For the same compound, the TGI in the assay with HCT-116 colon, in the assay with NCI-H460 lung, with OVCAR-3 ovarian, with EKVX NSCLC, in the assay with CCRF-CEM leukemia and with SF-539 CNS was above 100 µM throughout. Besides, the TGI in the assay with SR leukemia and in the assay on ACHN renal was above 100 µM throughout.

In the case of `COC(=O)[C@H](Cc1ccccc1)NC(=O)/C(=C/C(C)C)NC(=O)[C@H](CCSC)NC=O`, the TGI in the assay on UO-31 renal, in the assay with RPMI-8226 leukemia, with RXF 393 renal, with SNB-19 CNS, in the assay on SK-OV-3 ovarian and in the assay with OVCAR-4 ovarian was above 100 µM throughout. Besides, the TGI in the assay on HOP-62 NSCLC, in the assay on HCT-116 colon, in the assay with NCI-H460 lung, with OVCAR-3 ovarian, in the assay with EKVX NSCLC and in the assay on CCRF-CEM leukemia was above 100 µM in each case. For the same compound, the TGI with SF-539 CNS, in the assay on SR leukemia and in the assay with ACHN renal was above 100 µM in each case.

Consider `O=C(CC(CC(=O)Oc1c(Br)cc(Br)cc1C(=O)O)C(=O)Oc1c(Br)cc(Br)cc1C(=O)O)Oc1c(Br)cc(Br)cc1C(=O)O`, for which the TGI in the assay with UO-31 renal, with RPMI-8226 leukemia, with SNB-19 CNS, in the assay on OVCAR-5 ovarian, with SK-OV-3 ovarian and in the assay on OVCAR-4 ovarian was above 100 µM each time. Also, the TGI with HOP-62 NSCLC, in the assay with HCT-116 colon, with NCI-H460 lung, in the assay on OVCAR-3 ovarian, in the assay with EKVX NSCLC and in the assay with CCRF-CEM leukemia was above 100 µM in each case. For the same compound, the TGI with SF-539 CNS and in the assay with ACHN renal was above 100 µM throughout.

For `O=C(C=C1SCCS1)/C=C\c1ccc(Cl)cc1`, the TGI with UO-31 renal, in the assay with RPMI-8226 leukemia, in the assay on SNB-19 CNS, in the assay on SK-OV-3 ovarian, in the assay with OVCAR-4 ovarian and in the assay with HOP-62 NSCLC was above 100 µM throughout. The TGI in the assay with HCT-116 colon, in the assay with OVCAR-3 ovarian, in the assay on EKVX NSCLC, with CCRF-CEM leukemia, with SF-539 CNS and in the assay with SR leukemia was above 100 µM throughout.
